Values of other authors as cited in US20120116113A1, “PROCESS FOR MAKING NEO-ENRICHED p-MENTHANE COMPOUNDS” (priority 2010, published 2012).

Conditions: for initial cooling rating: table below paragraph [0137] of U.S. Pat. Appl. 2010/0076080

Row | Structure (SMILES) | cooling effect (according to Yelm et al., U.S. Pat. Appl. 2010/0076080) | initial cooling rating
1 | CC(C)[C@@H]1CC[C@@H](C)C[C@@H]1C(=O)Nc1ccc(CC#N)cc1 (single isomer, unassigned) [neo isomer [of G-180]] | potent and long-lasting cooling effect | –
2 | CCOC(=O)CNC(=O)C1CC(C)CCC1C(C)C (stereo not drawn) [neo-WS-5] | – | 61.9
3 | CCOC(=O)CNC(=O)[C@@H]1C[C@H](C)CC[C@H]1C(C)C [normal WS-5] | – | 53.9
